The values that follow come from patent US9611278B2 (Merck Sharp & Dohme Corp., priority 2013, dated 2017).

For assay [1], the target named is T1, sGC α1/β1 heterodimer stably expressed in CHO-K1 cells (CHO-K1/sGC) (Homo sapiens, UniProt Q02108+Q02153).
T1 construct: expressed in transfected cells
T1 sequence (Q02108 1-690): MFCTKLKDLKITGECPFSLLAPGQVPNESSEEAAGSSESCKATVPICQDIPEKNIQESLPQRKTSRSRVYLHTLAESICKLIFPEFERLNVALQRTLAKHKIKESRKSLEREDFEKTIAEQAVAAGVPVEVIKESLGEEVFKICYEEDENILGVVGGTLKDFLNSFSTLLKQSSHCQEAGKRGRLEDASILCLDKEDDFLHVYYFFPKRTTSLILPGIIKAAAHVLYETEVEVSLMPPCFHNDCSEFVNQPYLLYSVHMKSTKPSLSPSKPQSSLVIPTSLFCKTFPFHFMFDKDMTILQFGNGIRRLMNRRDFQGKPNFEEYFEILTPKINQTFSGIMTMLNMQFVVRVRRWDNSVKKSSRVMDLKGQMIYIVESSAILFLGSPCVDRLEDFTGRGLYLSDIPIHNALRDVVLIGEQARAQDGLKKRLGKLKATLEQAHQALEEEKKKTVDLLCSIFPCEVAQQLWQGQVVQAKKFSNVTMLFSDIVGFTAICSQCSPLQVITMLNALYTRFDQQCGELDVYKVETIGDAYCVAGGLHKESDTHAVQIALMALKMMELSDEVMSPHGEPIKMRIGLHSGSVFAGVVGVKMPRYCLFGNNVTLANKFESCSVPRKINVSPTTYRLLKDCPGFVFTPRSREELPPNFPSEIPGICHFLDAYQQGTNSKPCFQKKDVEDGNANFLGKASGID
T1 sequence (Q02153 1-619): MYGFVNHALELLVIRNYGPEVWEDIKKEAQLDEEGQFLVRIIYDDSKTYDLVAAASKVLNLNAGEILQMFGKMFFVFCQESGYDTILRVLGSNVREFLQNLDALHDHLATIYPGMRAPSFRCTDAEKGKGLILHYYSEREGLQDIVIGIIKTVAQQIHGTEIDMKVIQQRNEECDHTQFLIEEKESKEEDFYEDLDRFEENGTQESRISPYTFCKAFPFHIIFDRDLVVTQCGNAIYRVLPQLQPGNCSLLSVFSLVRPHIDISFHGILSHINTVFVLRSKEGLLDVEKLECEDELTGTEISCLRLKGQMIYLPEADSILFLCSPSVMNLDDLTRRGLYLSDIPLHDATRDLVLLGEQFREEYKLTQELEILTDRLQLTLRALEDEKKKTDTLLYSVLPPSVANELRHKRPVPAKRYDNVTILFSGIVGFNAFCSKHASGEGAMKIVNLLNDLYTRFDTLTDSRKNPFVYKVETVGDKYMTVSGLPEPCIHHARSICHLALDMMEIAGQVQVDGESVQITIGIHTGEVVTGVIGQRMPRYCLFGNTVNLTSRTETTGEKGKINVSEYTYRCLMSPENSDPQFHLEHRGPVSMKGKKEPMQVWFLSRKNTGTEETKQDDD
The assay is described as follows: Cell-based sGC Functional Assay (CASA Assay). Particulars: for Emax: CHO-K1, activation as percentage of maximum cGMP production of Compound A (set to 100%), read-out: % Act.; for EC50: inflection point of cGMP generation in CHO-K1/sGC cells, 4P fit, 1 hr at 37° C., read-out: IP. In outline:
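CHO-K1 cells stably expressing human sGC α1/β1 were incubated with compound for 1 h at 37 °C in buffer with 0.5 mM IBMX and 2.5% DMSO, with or without 1 μM DETA-NO. Intracellular cGMP was read by HTRF and expressed as percentage of maximal activation by reference activator Compound A. Values came from a 4-parameter fit.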

For assay [2], the system named is Spontaneously hypertensive rats (SHR). The assay can be described thus: Acute Efficacy in Spontaneously Hypertensive Rats (SHR). The format is in vivo, rat. Particulars: single oral dose. The source says: Spontaneously hypertensive rats (SHR, male, Charles River) were implanted with DSI TA11PA-C40 telemetry device (Data Sciences, Inc., St. Paul, Minn.) under isoflurane or ketamine/metomidine anesthesia. The telemetry unit catheter was inserted into the descending aorta via the femoral artery and the telemetry device was implanted subcutaneously in the left flank area. Animals were allowed to recover from surgery for 14 days before the start of any studies. Blood pressure, heart rate, and activity signals from conscious, freely moving rats were recorded continuously for 30 seconds every 10 min. On the day prior to administration of compound, a single oral dose of vehicle (10% transcutol/20% Cremophor/70% water) was administered to all animals to establish baseline control data. The blood pressure lowering efficacy of compound (PO) or vehicle was evaluated following a single oral gavage. Data were collected as hourly averages, and changes in blood pressure were calculated by subtracting control baseline data on an hourly basis. Animals were maintained on normal diet with a 12 hour light-dark cycle.
Maximum peak decreases of systolic blood pressure (SBP) in SHR at a particular P.O. dose (mpk milligrams per kilogram) for the following representative compounds are provided in Table 9. Category A=SBP in SHRs <15 mmHg; Category B=SBP in SHRs 15-25 mmHg; Category C=SBP in SHRs >25 mmHg

`CCn1cc(C2(C)C(=O)Nc3nc(-c4nc(CCC(F)(F)C(F)(F)F)nc5c4cnn5C)nc(N)c32)nn1` (single isomer, unassigned) [Example 69, 4-Amino-5-(1-ethyl-1H-1,2,3-triazol-4-yl)-5-methyl-2-(1-methyl-6-(3,3,4,4,4-pentafluorobutyl)-1H-pyrazolo[3,4-d]pyrimidin-4-yl)-5,7-dihydro-6H-pyrrolo[2,3-d]pyrimidin-6-one]: in assay [1], the Emax is 105% and the EC50 worked out at 259 nM. The “Category: maximum peak decrease of systolic blood pressure (SBP) in SHR” value (from here on “Category: maximum peak decrease”) in assay [2] (P.O. 1 mpk) is “C (Category C=SBP in SHRs >25 mmHg)”.
Regarding `Cn1ncc2c(-c3nc(N)c4c(n3)NC(=O)C4(C)c3ccc(F)cn3)nc(CCC(F)(F)C(F)(F)F)nc21` (stereo not drawn) [Example 1, 4-Amino-5-(5-fluoropyridin-2-yl)-5-methyl-2-(1-methyl-6-(3,3,4,4,4-pentafluorobutyl)-1H-pyrazolo[3,4-d]pyrimidin-4-yl)-5H-pyrrolo[2,3-d]pyrimidin-6(7H)-one], in assay [1], the Emax stood at 123% and the EC50 amounted to 55 nM. Moreover, the “Category: maximum peak decrease” value in assay [2] (P.O. 0.3 mpk) is given as “C (Category C=SBP in SHRs >25 mmHg)”.
For `CC(C)n1cc(C2(C)C(=O)Nc3nc(-c4nc(CCC(F)(F)C(F)(F)F)nc5c4cnn5C)nc(N)c32)nn1` (single isomer, unassigned) [Example 56, 4-Amino-5-(1-isopropyl-1H-1,2,3-triazol-4-yl)-5-methyl-2-(1-methyl-6-(3,3,4,4,4-pentafluorobutyl)-1H-pyrazolo[3,4-d]pyrimidin-4-yl)-5,7-dihydro-6H-pyrrolo[2,3-d]pyrimidin-6-one], in assay [1], the Emax came to 126% and the EC50 is 1020 nM. For the same compound, the “Category: maximum peak decrease” value in assay [2] (P.O. 1 mpk) was “C (Category C=SBP in SHRs >25 mmHg)”.
Taken in the same sequence, the figures for `[2H]C([2H])([2H])n1ncc2c(-c3nc(N)c4c(n3)NC(=O)C4(C)c3cn(CC4CC4)nn3)nc(CCC(F)(F)C(F)(F)F)nc21` (stereo not drawn) [Example 63, 4-Amino-5-(1-(cyclopropylmethyl)-1H-1,2,3-triazol-4-yl)-5-methyl-2-(1-(methyl-d3)-6-(3,3,4,4,4-pentafluorobutyl)-1H-pyrazolo[3,4-d]pyrimidin-4-yl)-5,7-dihydro-6H-pyrrolo[2,3-d]pyrimidin-6-one] were 93%, 235 nM and “A (Category A=SBP in SHRs <15 mmHg)”.
For `CC(C)n1cc(C2(C)C(=O)Nc3nc(-c4nc(CCCC(F)(F)F)nc5c4cnn5C)nc(N)c32)nn1` (stereo not drawn) [Example 78, 4-Amino-5-(1-isopropyl-1H-1,2,3-triazol-4-yl)-5-methyl-2-(1-methyl-6-(4,4,4-trifluorobutyl)-1H-pyrazolo[3,4-d]pyrimidin-4-yl)-5,7-dihydro-6H-pyrrolo[2,3-d]pyrimidin-6-one], in assay [1], the Emax came out at 103% and the EC50 was determined as 368 nM. Further, the “Category: maximum peak decrease” value in assay [2] (P.O. 1 mpk) is listed as “C (Category C=SBP in SHRs >25 mmHg)”.
For `[2H]C([2H])([2H])n1ncc2c(-c3nc(N)c4c(n3)NC(=O)C4(C)c3cn(C(C)C)nn3)nc(CCC(F)(F)C(F)(F)F)nc21` (stereo not drawn) [Example 67, 4-Amino-5-(1-isopropyl-1H-1,2,3-triazol-4-yl)-5-methyl-2-(1-(methyl-d3)-6-(3,3,4,4,4-pentafluorobutyl)-1H-pyrazolo[3,4-d]pyrimidin-4-yl)-5,7-dihydro-6H-pyrrolo[2,3-d]pyrimidin-6-one], the “% Act.” value in assay [1] (activation as percentage of maximum cGMP production of Compound A (set to 100%)) is reported as 128%. Also, in assay [1], the EC50 came out at 120 nM. In addition, the “Category: maximum peak decrease” value in assay [2] (P.O. 0.3 mpk) is given as “B (Category B=SBP in SHRs 15-25 mmHg)”.
`Cn1ccc2c(-c3nc(N)c4c(n3)NC(=O)C4(C)c3nnc(C4CC4)o3)nc(CCC(F)(F)C(F)(F)F)nc21` (stereo not drawn) [Example 86, 4-Amino-5-(5-cyclopropyl-1,3,4-oxadiazol-2-yl)-5,7′-dimethyl-2′-(3,3,4,4,4-pentafluorobutyl)-5,7-dihydro-6H,7′H-[2,4′-bipyrrolo[2,3-d]pyrimidin]-6-one]: in assay [1], the Emax is 104% and the EC50 stood at 410 nM. Also, in assay [2] (P.O. 1 mpk), the “Category: maximum peak decrease” value is “B (Category B=SBP in SHRs 15-25 mmHg)”.
